“And” between values parts separate entries of the source, which are not always exact repeats. Equal values may be shown once. Inconclusive results and toxic doses are left out.
Test system: L1210 leukemia ip in BDF1 mice, survival T/C
Assay: NCI In Vivo Anticancer Drug Screen. Data for tumor model L1210 Leukemia (intraperitoneal) in B6D2F1 (BDF1) mice
Conditions: endpoint: mean survival time, higher = longer survival
Method in brief: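 Antitumor effect is assessed in tumor-bearing animals. Survival in the compound arm is compared with a vehicle-dosed control arm and expressed as their quotient.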

[1] = dose: 50.0 mg/kg/injection, schedule: Q01DX001 (ip), vehicle: saline
[2] = dose: 100.0 mg/kg/injection, schedule: Q01DX001 (ip), vehicle: saline
[3] = dose: 100.0 mg/kg/injection, schedule: Q04DX003 (ip), vehicle: Klucel (hydroxypropylcellulose) (HPC)
[4] = dose: 200.0 mg/kg/injection, schedule: Q04DX003 (ip), vehicle: Klucel (hydroxypropylcellulose) (HPC)
[5] = dose: 100.0 mg/kg/injection, schedule: Q04DX003 (ip), vehicle: saline
[6] = dose: 200.0 mg/kg/injection, schedule: Q04DX003 (ip), vehicle: saline
[7] = dose: 400.0 mg/kg/injection, schedule: Q04DX003 (ip), vehicle: Klucel (hydroxypropylcellulose) (HPC)

For `Nc1ncnc2nc(CO)[nH]c12`, the T/C (dose: 100.0 mg/kg/injection, schedule: Q04DX002 (ip), vehicle: Klucel (hydroxypropylcellulose) (HPC)) was 92 % of control, the T/C (dose: 200.0 mg/kg/injection, schedule: Q04DX002 (ip), vehicle: Klucel (hydroxypropylcellulose) (HPC)) was 100 % of control and the T/C (dose: 400.0 mg/kg/injection, schedule: Q04DX002 (ip), vehicle: Klucel (hydroxypropylcellulose) (HPC)) was 95 % of control.
With `NC(=O)c1ccc([N+](=O)[O-])cc1C(N)=O` the T/C (dose: 25.0 mg/kg/injection, schedule: Q01DX001 (ip), vehicle: saline) was 111 % of control, the T/C [1] was 97 % of control and the T/C [2] was 104 % of control.
In the case of `CCc1c(Nc2ccc(C)c(C)c2)[nH]c(N)nc1=S`, the T/C (dose: 100.0 mg/kg/injection, schedule: Q01DX Z (ip), vehicle: methylcellulose (MC)) is reported as 87 % of control and the T/C (dose: 200.0 mg/kg/injection, schedule: Q01DX Z (ip), vehicle: methylcellulose (MC)) is reported as 109 % of control.
In the case of `CSc1nccc(=O)[nH]1`, the T/C (dose: 50.0 mg/kg/injection, schedule: Q01DX009 (ip), vehicle: Klucel (hydroxypropylcellulose) (HPC)) is reported as 100 % of control, the T/C (dose: 100.0 mg/kg/injection, schedule: Q01DX009 (ip), vehicle: Klucel (hydroxypropylcellulose) (HPC)) is reported as 95 % of control and the T/C [3] is reported as 102 % of control. For the same compound, the T/C [4] was 96 % of control.
With `O=C(Oc1ccc([N+](=O)[O-])cc1)c1ccc(C[n+]2ccccc2)cc1` the T/C (dose: 50.0 mg/kg/injection, schedule: Q01DX009 (ip), vehicle: saline) was 97 % of control, the T/C (dose: 100.0 mg/kg/injection, schedule: Q01DX009 (ip), vehicle: saline) was 97 % of control and 104 % of control and the T/C [5] was 97 % of control. The T/C (dose: 200.0 mg/kg/injection, schedule: Q01DX009 (ip), vehicle: saline) was 100 % of control and 106 % of control and the T/C [6] was 90 % of control.
For `C[N+](C)(C)CCOS(=O)(=O)[O-]`, the T/C (dose: 50.0 mg/kg/injection, schedule: Q04DX003 (ip), vehicle: saline) was 99 % of control, the T/C [5] was 97 % of control and 103 % of control and the T/C [6] was 95 % of control and 105 % of control. The T/C (dose: 400.0 mg/kg/injection, schedule: Q04DX003 (ip), vehicle: saline) was 98 % of control.
`O=S(=O)(OCC1CO1)c1ccc(N=Nc2ccccc2)cc1` (centres undefined) was tested, and the T/C (dose: 100.0 mg/kg/injection, schedule: Q01DX008 (ip), vehicle: Klucel (hydroxypropylcellulose) (HPC)) was 98 % of control, the T/C (dose: 200.0 mg/kg/injection, schedule: Q01DX008 (ip), vehicle: Klucel (hydroxypropylcellulose) (HPC)) was 90 % of control and the T/C (dose: 400.0 mg/kg/injection, schedule: Q01DX008 (ip), vehicle: Klucel (hydroxypropylcellulose) (HPC)) was 96 % of control.
In the case of `c1ccc(P(OCCCCOP(c2ccccc2)c2ccccc2)c2ccccc2)cc1`, the T/C [1] is reported as 95 % of control, the T/C (dose: 100.0 mg/kg/injection, schedule: Q01DX001 (ip), vehicle: carboxymethylcellulose (CMC)) is reported as 103 % of control and the T/C [2] is reported as 97 % of control. For the same compound, the T/C (dose: 200.0 mg/kg/injection, schedule: Q01DX001 (ip), vehicle: carboxymethylcellulose (CMC)) was 114 % of control, the T/C (dose: 200.0 mg/kg/injection, schedule: Q01DX001 (ip), vehicle: saline) was 86 % of control and the T/C (dose: 400.0 mg/kg/injection, schedule: Q01DX001 (ip), vehicle: carboxymethylcellulose (CMC)) was 103 % of control. The T/C (dose: 400.0 mg/kg/injection, schedule: Q01DX001 (ip), vehicle: saline) was 95 % of control.
`O=C(/C=C\c1ccc(/C=C/C(=O)Nc2cccc(C3=NCCCN3)c2)cc1)Nc1cccc(C2=NCCCN2)c1` was tested, and the T/C (dose: 0.62 mg/kg/injection, schedule: Q01DX Z (ip), vehicle: carboxymethylcellulose (CMC)) was 117 % of control, the T/C (dose: 5.0 mg/kg/injection, schedule: Q01DX Z (ip), vehicle: carboxymethylcellulose (CMC)) was 225 % of control and the T/C (dose: 12.5 mg/kg/injection, schedule: Q01DX Z (oral), vehicle: carboxymethylcellulose (CMC)) was 103 % of control. For the same compound, the T/C (dose: 25.0 mg/kg/injection, schedule: Q01DX Z (oral), vehicle: carboxymethylcellulose (CMC)) was 103 % of control, the T/C (dose: 50.0 mg/kg/injection, schedule: Q01DX Z (oral), vehicle: carboxymethylcellulose (CMC)) was 102 % of control and the T/C (dose: 100.0 mg/kg/injection, schedule: Q01DX Z (oral), vehicle: carboxymethylcellulose (CMC)) was 97 % of control.
`Clc1ccc(Sc2ccccc2)cc1` was tested, and the T/C [3] was 105 % of control, the T/C [4] was 88 % of control and the T/C [7] was 105 % of control.
For `Cc1cccc(Cl)c1NC(=O)CC#N`, the T/C (dose: 100.0 mg/kg/injection, schedule: Q01DX009 (ip), vehicle: saline with Tween-80) was 97 % of control, the T/C (dose: 100.0 mg/kg/injection, schedule: Q04DX002 (ip), vehicle: saline with Tween-80) was 97 % of control and the T/C (dose: 200.0 mg/kg/injection, schedule: Q01DX009 (ip), vehicle: saline with Tween-80) was 95 % of control. The T/C (dose: 200.0 mg/kg/injection, schedule: Q04DX002 (ip), vehicle: saline with Tween-80) was 97 % of control, the T/C (dose: 400.0 mg/kg/injection, schedule: Q01DX009 (ip), vehicle: saline with Tween-80) was 100 % of control and the T/C (dose: 400.0 mg/kg/injection, schedule: Q04DX002 (ip), vehicle: saline with Tween-80) was 97 % of control.
In the case of `CCOC(=O)C1(C(=O)O)CC2C(C)C=CC(C)C2C1` (centres undefined), the T/C [3] is reported as 100 % of control, the T/C [4] is reported as 94 % of control and the T/C [7] is reported as 91 % of control.
